Source: patent publication US8481544B2, “Antibacterial compositions” (Biota Europe Limited, priority 2006, dated 2013)
Converted amounts (≈) assume the structure as drawn.

Test system: Enterococcus faecalis ATCC 29212
Experiment: MIC against Enterococcus faecalis ATCC 29212
Assay type: cell-based
Settings: ATCC29212; Enterococcus faecalis ATCC 29212; read-out: MICs against Enterococcus faecalis, Activity
Protocol: Institute. Methods for Dilution Antimicrobial Susceptibility Tests for Bacteria That Grow Aerobically; Approved Standard—Seventh Edition. Document M7-A7. CLSI, Wayne, Pa., 2006; Clinical Laboratories and Standards Institute. Methods for Antimicrobial Susceptibility Testing of Anaerobic Bacteria; Approved Standard—Sixth Edition. Document M11-A6. CLSI, Wayne, Pa., 2004).
Compounds of this invention were tested for antimicrobial activity by susceptibility testing in liquid or on solid media. MICs for compounds against each strain were determined by the broth microdilution or agar dilution method according to the guidelines of the Clinical Laboratories and Standards Institute, formerly the National Committee for Clinical Laboratory Standards (Clinical Laboratories and Standards Institute. Methods for Dilution Antimicrobial Susceptibility Tests for Bacteria That Grow Aerobically; Approved Standard—Seventh Edition. Document M7-A7. CLSI, Wayne, Pa., 2006; Clinical Laboratories and Standards Institute. Methods for Antimicrobial Susceptibility Testing of Anaerobic Bacteria; Approved Standard—Sixth Edition. Document M11-A6. CLSI, Wayne, Pa., 2004).

| SMILES | MIC [µg/mL] |
| --- | --- |
| CCNC(=O)Nc1nc2cc(-c3ccc(NC(=O)CN(C)C)nc3)cc(-c3ccccn3)c2s1 [Example 66, 2-Dimethylamino-N-{5-[2-(3-ethyl-ureido)-7-pyridin-2-yl-benzothiazol-5-yl]-pyridin-2-yl}-acetamide] | 0.25 to 1 (≈ 0.526 to 2.1 µM) |
| CCNC(=O)Nc1nc2cc(-c3cc(C)n(C)c(=O)c3)cc(-c3cccnc3)c2s1 [Example 50, 1-[5-(1,6-Dimethyl-2-oxo-1,2-dihydro-pyridin-4-yl)-7-pyridin-3-yl-benzothiazol-2-yl]-3-ethyl-urea] | 0.25 to 1 (≈ 0.596 to 2.38 µM) |
| CCNC(=O)Nc1nc2cc(-c3cccnc3)cc(-c3ccccc3OC)c2s1 [Example 87, 1-Ethyl-3-[7-(2-methoxy-phenyl)-5-pyridin-3-yl-benzothiazol-2-yl]-urea] | 0.25 to 1 (≈ 0.618 to 2.47 µM) |
| CCNC(=O)Nc1nc2cc(-c3cccnc3)cc(-c3cncc(N)n3)c2s1 [Example 123, 1-[7-(6-Amino-pyrazin-2-yl)-5-pyridin-3-yl-benzothiazol-2-yl]-3-ethyl-urea] | < 0.25 |
| CCNC(=O)Nc1nc2cc(-c3cccnc3)cc(-c3csc(OC)n3)c2s1 [Example 157, 1-Ethyl-3-[7-(2-methoxy-thiazol-4-yl)-5-pyridin-3-yl-benzothiazol-2-yl]-urea] | 0.25 to 1 (≈ 0.608 to 2.43 µM) |
| CCNC(=O)Nc1nc2cc(-c3ccc(NC(=O)CNC(C)(C)C)nc3)cc(-c3ccccn3)c2s1 [Example 55, 2-tert-Butylamino-N-{5-[2-(3-ethyl-ureido)-7-pyridin-2-yl-benzothiazol-5-yl]-pyridin-2-yl}-acetamide] | 0.25 to 1 (≈ 0.496 to 1.99 µM) |
| CCNC(=O)Nc1nc2cc(-c3ccc(CO)cc3)cc(-c3ccc(CO)cc3)c2s1 [Example 144, 1-[5,7-Bis-(4-hydroxymethyl-phenyl)-benzothiazol-2-yl]-3-ethyl-urea] | 0.25 to 1 (≈ 0.577 to 2.31 µM) |
| CCNC(=O)Nc1nc2cc(-c3ccc(NC(C)=O)nc3)cc(-c3ccc(C#N)cn3)c2s1 [Example 136, N-{5-[7-(5-Cyano-pyridin-2-yl)-2-(3-ethyl-ureido)-benzothiazol-5-yl]-pyridin-2-yl}-acetamide] | < 0.25 |
| CCNC(=O)Nc1nc2cc(-c3cncc(Cl)c3)cc(-c3cccnc3)c2s1 [Example 48, 1-[5-(5-Chloro-pyridin-3-yl)-7-pyridin-3-yl-benzothiazol-2-yl]-3-ethyl-urea] | 0.25 to 1 (≈ 0.61 to 2.44 µM) |
| CCNC(=O)Nc1nc2cc(-c3ccc(NC(C)=O)nc3)cc(-c3ccccn3)c2s1 [Example 133, N-{5-[2-(3-Ethyl-ureido)-7-pyridin-2-yl-benzothiazol-5-yl]-pyridin-2-yl}-acetamide] | < 0.25 |
| CCNC(=O)Nc1nc2cc(-c3cnc(N)nc3)cc(-c3cnccn3)c2s1 [Example 139, 1-[5-(2-Amino-pyrimidin-5-yl)-7-pyrazin-2-yl-benzothiazol-2-yl]-3-ethyl-urea] | < 0.25 |
| CCNC(=O)Nc1nc2cc(-c3cccnc3)cc(-c3nccc(OC)n3)c2s1 [Example 124, 1-Ethyl-3-[7-(4-methoxy-pyrimidin-2-yl)-5-pyridin-3-yl-benzothiazol-2-yl]-urea] | < 0.25 |
| CCNC(=O)Nc1nc2cc(-c3cccnc3)cc(-c3cccn3C)c2s1 [Example 11, 1-Ethyl-3-[7-(1-methyl-1H-pyrrol-2-yl)-5-pyridin-3-yl-benzothiazol-2-yl]-urea] | 0.25 to 1 (≈ 0.662 to 2.65 µM) |
| CCNC(=O)Nc1nc2cc(-c3ccn(C)c(=O)c3)cc(-c3ccccn3)c2s1 [Example 51, 1-Ethyl-3-[5-(1-methyl-2-oxo-1,2-dihydro-pyridin-4-yl)-7-pyridin-2-yl-benzothiazol-2-yl]-urea] | < 0.25 |
| CCNC(=O)Nc1nc2cc(Br)cc(-c3cnn(C)c3)c2s1 [Example 5, 1-[5-Bromo-7-(1-methyl-1H-pyrazol-4-yl)-benzothiazol-2-yl]-3-ethyl-urea] | 2 to 16 (≈ 5.26 to 42.1 µM) |
| CCNC(=O)Nc1nc2cc(-c3cccnc3)cc(-c3nc(CO)cs3)c2s1 [Example 106, 1-Ethyl-3-[7-(4-hydroxymethyl-thiazol-2-yl)-5-pyridin-3-yl-benzothiazol-2-yl]-urea] | 0.25 to 1 (≈ 0.608 to 2.43 µM) |
| CCNC(=O)Nc1nc2cc(-c3cccnc3)cc(-c3ccsc3)c2s1 [Example 77, 1-Ethyl-3-(5-pyridin-3-yl-7-thiophen-3-yl-benzothiazol-2-yl)-urea] | 0.25 to 1 (≈ 0.657 to 2.63 µM) |
| CCNC(=O)Nc1nc2cc(-c3cncnc3)cc(-c3cncnc3)c2s1 [Example 147, 1-(5,7-Di-pyrimidin-5-yl-benzothiazol-2-yl)-3-ethyl-urea] | 2 to 16 (≈ 5.3 to 42.4 µM) |
| CCNC(=O)Nc1nc2cc(-c3ccc(N(C)C)nc3)cc(-c3ccccn3)c2s1 [Example 38, 1-[5-(6-Dimethylamino-pyridin-3-yl)-7-pyridin-2-yl-benzothiazol-2-yl]-3-ethyl-urea] | 0.25 to 1 (≈ 0.597 to 2.39 µM) |
| CCNC(=O)Nc1nc2cc(-c3cccnc3)cc(-n3cccn3)c2s1 [Example 140, 1-Ethyl-3-(7-pyrazol-1-yl-5-pyridin-3-yl-benzothiazol-2-yl)-urea] | 0.25 to 1 (≈ 0.686 to 2.74 µM) |
| CCNC(=O)Nc1nc2cc(-c3cnc(N(C)C)nc3)cc(-c3cccnc3)c2s1 [Example 25, 1-[5-(2-Dimethylamino-pyrimidin-5-yl)-7-pyridin-3-yl-benzothiazol-2-yl]-3-ethyl-urea] | 0.25 to 1 (≈ 0.596 to 2.38 µM) |

Second part, the compound after the results:

| MIC [µg/mL] | SMILES |
| --- | --- |
| 2 to 16 (≈ 4.93 to 39.5 µM) | CCNC(=O)Nc1nc2cc(-c3cccnc3)cc(-c3ncccc3CO)c2s1 [Example 109, 1-Ethyl-3-[7-(3-hydroxymethyl-pyridin-2-yl)-5-pyridin-3-yl-benzothiazol-2-yl]-urea] |
| 2 to 16 (≈ 5.33 to 42.6 µM) | CCNC(=O)Nc1nc2cc(-c3ccccn3)cc(-c3cccnc3)c2s1 [Example 155, 1-Ethyl-3-(5-pyridin-2-yl-7-pyridin-3-yl-benzothiazol-2-yl)-urea] |
| 0.25 to 1 (≈ 0.637 to 2.55 µM) | CCNC(=O)Nc1nc2cc(-c3cccc(F)c3)cc(-c3cccnc3)c2s1 [Example 28, 1-Ethyl-3-[5-(3-fluoro-phenyl)-7-pyridin-3-yl-benzothiazol-2-yl]-urea] |
| < 0.25 | CCNC(=O)Nc1nc2cc(-c3cncnc3)cc(-c3ccccn3)c2s1 [Example 35, 1-Ethyl-3-(7-pyridin-2-yl-5-pyrimidin-5-yl-benzothiazol-2-yl)-urea] |
| 0.25 to 1 (≈ 0.635 to 2.54 µM) | CCNC(=O)Nc1nc2cc(-c3cccnc3)cc(-c3cccnc3F)c2s1 [Example 76, 1-Ethyl-3-[7-(2-fluoro-pyridin-3-yl)-5-pyridin-3-yl-benzothiazol-2-yl]-urea] |
| < 0.25 | CCNC(=O)Nc1nc2cc(-c3cccnc3)cc(-c3ncccc3C#N)c2s1 [Example 95, 1-[7-(3-Cyano-pyridin-2-yl)-5-pyridin-3-yl-benzothiazol-2-yl]-3-ethyl-urea] |
| 0.25 to 1 (≈ 0.64 to 2.56 µM) | CCNC(=O)Nc1nc2cc(-c3ccc(N)nc3)cc(-c3cccnc3)c2s1 [Example 17, 1-[5-(6-Amino-pyridin-3-yl)-7-pyridin-3-yl-benzothiazol-2-yl]-3-ethyl-urea] |
| 0.25 to 1 (≈ 0.686 to 2.74 µM) | CCNC(=O)Nc1nc2cc(-c3cccnc3)cc(-c3cc[nH]n3)c2s1 [Example 82, 1-Ethyl-3-[7-(1H-pyrazol-3-yl)-5-pyridin-3-yl-benzothiazol-2-yl]-urea] |
| < 0.25 | CCNC(=O)Nc1nc2cc(-c3cccnc3)cc(-c3cc(CO)ccn3)c2s1 [Example 121, 1-Ethyl-3-[7-(4-hydroxymethyl-pyridin-2-yl)-5-pyridin-3-yl-benzothiazol-2-yl]-urea] |
| 0.25 to 1 (≈ 0.642 to 2.57 µM) | CCNC(=O)Nc1nc2cc(-c3cnccc3C)cc(-c3ccccn3)c2s1 [Example 39, 1-Ethyl-3-[5-(4-methyl-pyridin-3-yl)-7-pyridin-2-yl-benzothiazol-2-yl]-urea] |
